What all share (assay): relative viability (nuclei count vs DMSO), 5 days (fraction); higher = more cells survive
Compound in the experiment “Vismodegib + Bortezomib”: CS(=O)(=O)c1ccc(C(=O)Nc2ccc(Cl)c(-c3ccccn3)c2)c(Cl)c1 [Vismodegib] + CC(C)C[C@H](NC(=O)[C@H](Cc1ccccc1)NC(=O)c1cnccn1)B(O)O [Bortezomib] (partner 0.002 µM)
In a few lines: (§1)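 After 5 days of treatment, lung cancer cells in 1536-well plates were fixed and stained in a single step (final 0.05% Triton X-100, 1% formaldehyde, 1 ug/ml Hoechst) and their nuclei counted on 4× images. Treatment had been applied by pin tool the day after seeding as one drug alone or as a fixed anchor-drug dose with five library-drug doses (not always all listed) in √10 steps. Relative viability is the nuclei count of treated wells divided by that of vehicle wells, and values are medians of duplicate plates.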

Compound in the experiment “Vismodegib + Lapatinib”: CS(=O)(=O)c1ccc(C(=O)Nc2ccc(Cl)c(-c3ccccn3)c2)c(Cl)c1 [Vismodegib] + CS(=O)(=O)CCNCc1ccc(-c2ccc3ncnc(Nc4ccc(OCc5cccc(F)c5)c(Cl)c4)c3c2)o1 [Lapatinib] (partner 2 µM)
The essentials: as §1

Compound in the experiment “Vismodegib + Foretinib”: CS(=O)(=O)c1ccc(C(=O)Nc2ccc(Cl)c(-c3ccccn3)c2)c(Cl)c1 [Vismodegib] + COc1cc2c(Oc3ccc(NC(=O)C4(C(=O)Nc5ccc(F)cc5)CC4)cc3F)ccnc2cc1OCCCN1CCOCC1 [Foretinib] (partner 0.25 µM)
The essentials:
as §1

Compound in the experiment “VE-821 + Palbociclib”: CS(=O)(=O)c1ccc(-c2cnc(N)c(C(=O)Nc3ccccc3)n2)cc1 [VE-821] + CC(=O)c1c(C)c2cnc(Nc3ccc(N4CCNCC4)cn3)nc2n(C2CCCC2)c1=O [Palbociclib] (partner 0.5 µM)
The essentials:
as §1

For the cell line NCI-H3122, the relative viability was 1.03 with Vismodegib + Bortezomib (first compound 0.08 µM); 1.05 with Vismodegib + Bortezomib (first compound 0.253 µM); 1.01 in the experiment with Vismodegib + Bortezomib (first compound 0.8 µM); 0.986 in the experiment with Vismodegib + Bortezomib (first compound 2.53 µM); 0.935 with Vismodegib + Bortezomib (first compound 8 µM); 0.987 in the experiment with Vismodegib + Lapatinib (first compound 0.08 µM). Further, the relative viability with Vismodegib + Lapatinib (first compound 0.253 µM) is 1.06; in the experiment with Vismodegib + Lapatinib (first compound 0.8 µM) it was 0.982; in the experiment with Vismodegib + Lapatinib (first compound 2.53 µM) it was 0.897; with Vismodegib + Lapatinib (first compound 8 µM), 0.936; with Vismodegib + Foretinib (first compound 0.08 µM), 0.994; in the experiment with Vismodegib + Foretinib (first compound 0.253 µM), 0.938. Besides, the relative viability with Vismodegib + Foretinib (first compound 0.8 µM) came to 0.849; with Vismodegib + Foretinib (first compound 2.53 µM) it was 0.858; with Vismodegib + Foretinib (first compound 8 µM), 1.02; with VE-821 + Palbociclib (first compound 0.08 µM), 0.196; with VE-821 + Palbociclib (first compound 0.253 µM), 0.187; with VE-821 + Palbociclib (first compound 0.8 µM), 0.166. Further, the relative viability with VE-821 + Palbociclib (first compound 2.53 µM) worked out at 0.225; with VE-821 + Palbociclib (first compound 8 µM) it was 0.227.

PC-3 [JPC-3]: the relative viability in the experiment with Vismodegib + Bortezomib (first compound 0.08 µM) was found to be 0.827; with Vismodegib + Bortezomib (first compound 0.253 µM) it was 0.929; with Vismodegib + Bortezomib (first compound 0.8 µM), 0.786; with Vismodegib + Bortezomib (first compound 2.53 µM), 0.766; with Vismodegib + Bortezomib (first compound 8 µM), 0.93; in the experiment with Vismodegib + Lapatinib (first compound 0.08 µM) it was 0.486. The relative viability in the experiment with Vismodegib + Lapatinib (first compound 0.253 µM) came out at 0.467; with Vismodegib + Lapatinib (first compound 0.8 µM) it was 0.394; in the experiment with Vismodegib + Lapatinib (first compound 2.53 µM), 0.447; with Vismodegib + Lapatinib (first compound 8 µM) it was 0.475; in the experiment with Vismodegib + Foretinib (first compound 0.08 µM) it was 1.08; with Vismodegib + Foretinib (first compound 0.253 µM) it was 1.01. The relative viability with Vismodegib + Foretinib (first compound 0.8 µM) amounted to 0.965; with Vismodegib + Foretinib (first compound 2.53 µM), 0.993; with Vismodegib + Foretinib (first compound 8 µM) it was 1.03; with VE-821 + Palbociclib (first compound 0.08 µM) it was 0.266; with VE-821 + Palbociclib (first compound 0.253 µM) it was 0.478; with VE-821 + Palbociclib (first compound 0.8 µM), 0.58. The relative viability with VE-821 + Palbociclib (first compound 2.53 µM) was 0.54; with VE-821 + Palbociclib (first compound 8 µM) it was 0.56.

With PC-14, the relative viability with Vismodegib + Bortezomib (first compound 0.08 µM) came out at 0.802; with Vismodegib + Bortezomib (first compound 0.253 µM) it was 0.779; with Vismodegib + Bortezomib (first compound 0.8 µM), 0.994; in the experiment with Vismodegib + Bortezomib (first compound 2.53 µM) it was 0.761; in the experiment with Vismodegib + Bortezomib (first compound 8 µM), 0.755; with Vismodegib + Lapatinib (first compound 0.08 µM), 0.273. For the same cell line, the relative viability with Vismodegib + Lapatinib (first compound 0.253 µM) is 0.338; in the experiment with Vismodegib + Lapatinib (first compound 0.8 µM), 0.29; with Vismodegib + Lapatinib (first compound 2.53 µM), 0.337; with Vismodegib + Lapatinib (first compound 8 µM), 0.337; with Vismodegib + Foretinib (first compound 0.08 µM), 0.91; with Vismodegib + Foretinib (first compound 0.253 µM), 0.948. The relative viability with Vismodegib + Foretinib (first compound 0.8 µM) was found to be 0.984; in the experiment with Vismodegib + Foretinib (first compound 2.53 µM), 0.998; with Vismodegib + Foretinib (first compound 8 µM), 0.963; with VE-821 + Palbociclib (first compound 0.08 µM) it was 0.648; in the experiment with VE-821 + Palbociclib (first compound 0.253 µM) it was 0.46; with VE-821 + Palbociclib (first compound 0.8 µM) it was 0.455. Moreover, the relative viability in the experiment with VE-821 + Palbociclib (first compound 2.53 µM) is 0.351; with VE-821 + Palbociclib (first compound 8 µM), 0.169.

With RERF-LC-KJ, the relative viability is 1.06 in the experiment with Vismodegib + Bortezomib (first compound 0.08 µM); 1.07 with Vismodegib + Bortezomib (first compound 0.253 µM); 1.18 in the experiment with Vismodegib + Bortezomib (first compound 0.8 µM); 1.15 with Vismodegib + Bortezomib (first compound 2.53 µM); 1.02 in the experiment with Vismodegib + Bortezomib (first compound 8 µM); 0.902 with Vismodegib + Lapatinib (first compound 0.08 µM). Besides, the relative viability with Vismodegib + Lapatinib (first compound 0.253 µM) worked out at 0.848; in the experiment with Vismodegib + Lapatinib (first compound 0.8 µM) it was 0.762; with Vismodegib + Lapatinib (first compound 2.53 µM) it was 0.817; with Vismodegib + Lapatinib (first compound 8 µM) it was 0.826; with Vismodegib + Foretinib (first compound 0.08 µM), 0.826; in the experiment with Vismodegib + Foretinib (first compound 0.253 µM), 0.848. Further, the relative viability with Vismodegib + Foretinib (first compound 0.8 µM) is 0.852; with Vismodegib + Foretinib (first compound 2.53 µM), 0.85; in the experiment with Vismodegib + Foretinib (first compound 8 µM), 0.821; with VE-821 + Palbociclib (first compound 0.08 µM), 1.2; with VE-821 + Palbociclib (first compound 0.253 µM), 1.01; with VE-821 + Palbociclib (first compound 0.8 µM) it was 0.973. Besides, the relative viability was 0.929 with VE-821 + Palbociclib (first compound 2.53 µM) and 0.792 with VE-821 + Palbociclib (first compound 8 µM).

As for SK-LU-1, the relative viability turned out to be 1.17 with Vismodegib + Bortezomib (first compound 0.08 µM); 0.979 with Vismodegib + Bortezomib (first compound 0.8 µM); 1.1 with Vismodegib + Bortezomib (first compound 2.53 µM); 1.16 with Vismodegib + Bortezomib (first compound 8 µM); 0.769 with Vismodegib + Lapatinib (first compound 0.08 µM); 0.887 with Vismodegib + Lapatinib (first compound 0.253 µM). The relative viability amounted to 0.991 with Vismodegib + Lapatinib (first compound 0.8 µM); 0.776 in the experiment with Vismodegib + Lapatinib (first compound 2.53 µM); 0.884 with Vismodegib + Lapatinib (first compound 8 µM); 0.76 in the experiment with Vismodegib + Foretinib (first compound 0.08 µM); 0.821 with Vismodegib + Foretinib (first compound 0.253 µM); 0.875 in the experiment with Vismodegib + Foretinib (first compound 0.8 µM). The relative viability was 0.753 with Vismodegib + Foretinib (first compound 2.53 µM); 0.818 with Vismodegib + Foretinib (first compound 8 µM); 0.408 in the experiment with VE-821 + Palbociclib (first compound 0.08 µM); 0.424 with VE-821 + Palbociclib (first compound 0.253 µM); 0.323 with VE-821 + Palbociclib (first compound 0.8 µM); 0.376 in the experiment with VE-821 + Palbociclib (first compound 2.53 µM). Moreover, the relative viability with VE-821 + Palbociclib (first compound 8 µM) worked out at 0.261.

For the cell line SW 1573, the relative viability with Vismodegib + Bortezomib (first compound 0.08 µM) stood at 0.958; with Vismodegib + Bortezomib (first compound 0.253 µM), 0.995; with Vismodegib + Bortezomib (first compound 0.8 µM) it was 1.16; with Vismodegib + Bortezomib (first compound 8 µM), 0.946; with Vismodegib + Lapatinib (first compound 0.08 µM) it was 0.974; in the experiment with Vismodegib + Lapatinib (first compound 0.253 µM) it was 1.08. For the same cell line, the relative viability with Vismodegib + Lapatinib (first compound 0.8 µM) came to 1.14; with Vismodegib + Lapatinib (first compound 2.53 µM), 0.959; in the experiment with Vismodegib + Lapatinib (first compound 8 µM), 1.18; with Vismodegib + Foretinib (first compound 0.08 µM), 0.994; in the experiment with Vismodegib + Foretinib (first compound 0.253 µM), 0.908; in the experiment with Vismodegib + Foretinib (first compound 0.8 µM), 0.907. The relative viability with Vismodegib + Foretinib (first compound 2.53 µM) worked out at 0.895; with Vismodegib + Foretinib (first compound 8 µM) it was 1.01; with VE-821 + Palbociclib (first compound 0.08 µM), 0.419; in the experiment with VE-821 + Palbociclib (first compound 0.253 µM) it was 0.439; in the experiment with VE-821 + Palbociclib (first compound 0.8 µM), 0.449; with VE-821 + Palbociclib (first compound 2.53 µM), 0.353. In the experiment with VE-821 + Palbociclib (first compound 8 µM), the relative viability stood at 0.315.

These data come from the supplement of paper PMC10307832.
